Experiments:
Design in all cases: key: 0: normal development; 1: Less damaged; 2: Slightly damaged; 3: Moderately damaged; 4: Severely damaged; 5: All killed
green foxtail = experiment: Foliar spread test for upland field; type: in vivo, Setaria viridis; conditions: foliar spray 500 ppm, 3 weeks, rank vs non-treated
How it was run: (§1)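 Two-week-old glasshouse seedlings on volcanic ash soil were treated by foliar spray at 500 ppm, with 0.5% surfactant in the diluent. Effects were graded visually after three weeks, from 0 for no injury to 5 for complete kill.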

Large crabgrass [1] = experiment: Soil treatment test for upland field; type: in vivo, Digitaria adscendens; conditions: 500 g/ha, glass house 25° C., 3 weeks
How it was run: (§2)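 Herbicidal effect graded on a 0–5 scale (0 normal development, 5 all killed) after 3 weeks in a glasshouse at about 25° C. Compound applied as a soil-surface spray at 500 g/ha right after sowing into Ube alluvial soil; spray water contained 0.05% surfactant.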

barnyardgrass = experiment: Foliar spread test for upland field; type: in vivo, Echinochloa crusgalli; conditions: foliar spray 500 ppm, 3 weeks, rank vs non-treated
How it was run: as §1

morning glory = experiment: Foliar spread test for upland field; type: in vivo, Ipomoea spps.; conditions: foliar spray 500 ppm, 3 weeks, rank vs non-treated
How it was run: as §1

flat sedge = experiment: Herbicidal test for paddy field; type: in vivo, Cyperus serotinus; conditions: paddy field pot, 500 g/ha dropwise at 1.5 leaf stage of barnyardgrass, 3 weeks, rank vs non-treated
Protocol: Wagner pots, each having an area of 1/5000 are, were packed with Ube soil (alluvial soil) and planted with seeds or tubers of young rice plant, barnyardgrass, bulrush, flat sedge and monochoria. Then, the pots were filled with water to a depth of 3 cm.
Each wettable powder of the desired compounds (I) shown in Table 1 prepared in accordance with Example 2 was diluted with water containing a surfactant (0.05%) and subjected to dropwise addition treatment by using pipet so that an effective concentration of the compound (I) in each herbicide became 500 g/ha at 1.5 leaf stage of barnyardgrass.
These plants were controlled in a glass house at an average temperature of 25° C. for 3 weeks, and then herbicidal effects thereof were investigated.
The herbicidal effects are evaluated according to the following 6 ranks as compared with non-treated district.
(0: normal development, 1: Less damaged, 2: Slightly damaged, 3: Moderately damaged, 4: Severely damaged, 5: All killed).

annual bluegrass [2] = experiment: Soil treatment test for upland field; type: in vivo, Poa annua; conditions: 500 g/ha, glass house 25° C., 3 weeks
How it was run: as §2

Large crabgrass [3] = experiment: Foliar spread test for upland field; type: in vivo, Digitaria adscendens; conditions: foliar spray 500 ppm, 3 weeks, rank vs non-treated
How it was run: as §1

blackgrass = experiment: Soil treatment test for upland field; type: in vivo, Alopecurus aegualis; conditions: 500 g/ha, glass house 25° C., 3 weeks
How it was run: as §2

cotton = experiment: Foliar spread test for upland field; type: in vivo; conditions: foliar spray 500 ppm, 3 weeks, rank vs non-treated
How it was run: (§3)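 Seeds are planted in pots of volcanic ash soil and grown roughly 2 weeks under glass. Foliage then receives a uniform spray of compound at 500 ppm in water with 0.5% surfactant. Herbicidal damage is rated 0–5 after 3 weeks at an average 25° C.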

soybean [4] = experiment: Foliar spread test for upland field; type: in vivo; conditions: foliar spray 500 ppm, 3 weeks, rank vs non-treated
How it was run: as §3

soybean [5] = experiment: Soil treatment test for upland field; type: in vivo; conditions: 500 g/ha, glass house 25° C., 3 weeks
How it was run: as §2

sugar beat = experiment: Soil treatment test for upland field; type: in vivo; conditions: 500 g/ha, glass house 25° C., 3 weeks
How it was run: as §2

solgum = experiment: Soil treatment test for upland field; type: in vivo; conditions: 500 g/ha, glass house 25° C., 3 weeks
How it was run: as §2

bulrush = experiment: Herbicidal test for paddy field; type: in vivo, Scrips juncoides; conditions: paddy field pot, 500 g/ha dropwise at 1.5 leaf stage of barnyardgrass, 3 weeks, rank vs non-treated
How it was run: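 Under flooded conditions (3 cm water over Ube soil), each compound was delivered by pipet as a diluted wettable powder (0.05% surfactant) at 500 g/ha, timed to 1.5-leaf barnyardgrass. Plants stayed 3 weeks in a 25° C glasshouse before injury was graded from 0 (normal) to 5 (all killed).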

annual bluegrass [6] = experiment: Foliar spread test for upland field; type: in vivo, Poa annua; conditions: foliar spray 500 ppm, 3 weeks, rank vs non-treated
How it was run: as §1

SMILES: CCC(Oc1ccc(F)c(C(F)(F)F)c1)c1nc2cc(F)ccc2o1 (stereo not shown) [Compound 119, 1-(5-fluorobenzoxazol-2-yl)-1-(4-fluoro-3-(trifluoromethyl)phenoxy)propane]
- Effects Green foxtail (green foxtail): 1
- Effects Large crabgrass (Large crabgrass [1]): 5
- Effects Barnyardgrass (barnyardgrass): 1
- Effects Morning glory (morning glory): 3
- Effect Flat sedge (flat sedge): 2
- Effects Annual bluegrass (annual bluegrass [2]): 5
- Effects Large crabgrass (Large crabgrass [3]): 1
- Effects Blackgrass (blackgrass): 3
- Effects Cotton (cotton): 1
- Effects Soybean (soybean [4]): 2
- Effects Soybean (soybean [5]): 0
- Effects Sugar beat (sugar beat): 5
- Effects Solgum (solgum): 0

SMILES: CCC(Oc1cccc(C(F)(F)F)c1)c1nc2cc(F)ccc2o1 (stereo not shown) [Compound 120]
- Effects Green foxtail (green foxtail): 3
- Effects Large crabgrass (Large crabgrass [1]): 5
- Effects Barnyardgrass (barnyardgrass): 1
- Effects Morning glory (morning glory): 5
- Effect Flat sedge (flat sedge): 2
- Effects Annual bluegrass (annual bluegrass [2]): 5
- Effects Large crabgrass (Large crabgrass [3]): 1
- Effects Blackgrass (blackgrass): 3
- Effect Bulrush (bulrush): 3
- Effects Annual bluegrass (annual bluegrass [6]): 1
- Effects Cotton (cotton): 2
- Effects Soybean (soybean [4]): 5
- Effects Soybean (soybean [5]): 0
- Effects Sugar beat (sugar beat): 3
- Effects Solgum (solgum): 1

SMILES: CCC(Oc1ccc(F)c(C(F)(F)F)c1)c1nc2cc(Br)ccc2o1 (stereo not shown) [Compound 165]
- Effects Green foxtail (green foxtail): 4
- Effects Large crabgrass (Large crabgrass [1]): 5
- Effects Barnyardgrass (barnyardgrass): 2
- Effects Morning glory (morning glory): 4
- Effect Flat sedge (flat sedge): 3
- Effects Annual bluegrass (annual bluegrass [2]): 5
- Effects Large crabgrass (Large crabgrass [3]): 3
- Effects Blackgrass (blackgrass): 4
- Effects Annual bluegrass (annual bluegrass [6]): 2
- Effects Cotton (cotton): 3
- Effects Soybean (soybean [4]): 5
- Effects Soybean (soybean [5]): 0
- Effects Sugar beat (sugar beat): 5
- Effects Solgum (solgum): 1

SMILES: CCC(Oc1cccc(C(F)(F)F)c1)c1nc2cc(Br)ccc2o1 (stereo not shown) [Compound 166]
- Effects Green foxtail (green foxtail): 3
- Effects Large crabgrass (Large crabgrass [1]): 5
- Effects Barnyardgrass (barnyardgrass): 1
- Effects Morning glory (morning glory): 4
- Effect Flat sedge (flat sedge): 4
- Effects Annual bluegrass (annual bluegrass [2]): 5
- Effects Large crabgrass (Large crabgrass [3]): 3
- Effects Blackgrass (blackgrass): 3
- Effects Cotton (cotton): 2
- Effects Soybean (soybean [4]): 4
- Effects Soybean (soybean [5]): 0
- Effects Sugar beat (sugar beat): 5
- Effects Solgum (solgum): 0

SMILES: CCC(Oc1ccc(F)c(C(F)(F)F)c1)c1nc2cc([N+](=O)[O-])ccc2o1 (stereo not shown) [Compound 177]
- Effects Green foxtail (green foxtail): 5
- Effects Large crabgrass (Large crabgrass [1]): 5
- Effects Barnyardgrass (barnyardgrass): 2
- Effects Morning glory (morning glory): 5
- Effect Flat sedge (flat sedge): 3
- Effects Annual bluegrass (annual bluegrass [2]): 5
- Effects Large crabgrass (Large crabgrass [3]): 2
- Effects Blackgrass (blackgrass): 5
- Effect Bulrush (bulrush): 5
- Effects Annual bluegrass (annual bluegrass [6]): 4
- Effects Cotton (cotton): 3
- Effects Soybean (soybean [4]): 5
- Effects Soybean (soybean [5]): 1
- Effects Sugar beat (sugar beat): 5
- Effects Solgum (solgum): 2

SMILES: CCC(Oc1cccc(C(F)(F)F)c1)c1nc2cc(C#N)ccc2o1 (stereo not shown) [Compound 190]
- Effects Green foxtail (green foxtail): 5
- Effects Large crabgrass (Large crabgrass [1]): 5
- Effects Barnyardgrass (barnyardgrass): 3
- Effects Morning glory (morning glory): 3
- Effect Flat sedge (flat sedge): 3
- Effects Annual bluegrass (annual bluegrass [2]): 5
- Effects Large crabgrass (Large crabgrass [3]): 3
- Effects Blackgrass (blackgrass): 3
- Effects Annual bluegrass (annual bluegrass [6]): 4
- Effects Cotton (cotton): 3
- Effects Soybean (soybean [4]): 5
- Effects Soybean (soybean [5]): 0
- Effects Sugar beat (sugar beat): 5
- Effects Solgum (solgum): 2

SMILES: CCCC(Oc1cccc(C(F)(F)F)c1)c1nc2cc(C#N)c(C#N)cc2o1 (stereo not shown) [Compound 317]
- Effects Green foxtail (green foxtail): 5
- Effects Large crabgrass (Large crabgrass [1]): 5
- Effect Flat sedge (flat sedge): 5
- Effects Annual bluegrass (annual bluegrass [2]): 5
- Effects Blackgrass (blackgrass): 5
- Effect Bulrush (bulrush): 3
- Effects Annual bluegrass (annual bluegrass [6]): 5
- Effects Soybean (soybean [5]): 1
- Effects Sugar beat (sugar beat): 5
- Effects Solgum (solgum): 1

SMILES: CCC(Oc1ccc(Cl)c(C(F)(F)F)c1)c1nc2cc(F)ccc2o1 (stereo not shown) [Compound 441]
- Effects Green foxtail (green foxtail): 3
- Effects Large crabgrass (Large crabgrass [1]): 5
- Effects Barnyardgrass (barnyardgrass): 2
- Effects Morning glory (morning glory): 1
- Effect Flat sedge (flat sedge): 2
- Effects Annual bluegrass (annual bluegrass [2]): 5
- Effects Large crabgrass (Large crabgrass [3]): 2
- Effects Blackgrass (blackgrass): 3
- Effects Annual bluegrass (annual bluegrass [6]): 1
- Effects Cotton (cotton): 3
- Effects Soybean (soybean [4]): 3
- Effects Soybean (soybean [5]): 0
- Effects Sugar beat (sugar beat): 5
- Effects Solgum (solgum): 1

SMILES: CCC(Oc1cccc(C(F)(F)F)c1)c1nc2cc(F)c(C(F)(F)F)cc2o1 (stereo not shown) [Compound 471]
- Effects Green foxtail (green foxtail): 5
- Effects Large crabgrass (Large crabgrass [1]): 5
- Effects Morning glory (morning glory): 5
- Effect Flat sedge (flat sedge): 5
- Effects Annual bluegrass (annual bluegrass [2]): 5
- Effects Large crabgrass (Large crabgrass [3]): 5
- Effects Blackgrass (blackgrass): 5
- Effect Bulrush (bulrush): 2
- Effects Annual bluegrass (annual bluegrass [6]): 3
- Effects Soybean (soybean [5]): 2
- Effects Sugar beat (sugar beat): 5
- Effects Solgum (solgum): 3

SMILES: CCC(Oc1cccc(OC(F)(F)F)c1)c1nc2cc(C#N)c(C#N)cc2o1 (stereo not shown) [Compound 527]
- Effects Green foxtail (green foxtail): 5
- Effects Large crabgrass (Large crabgrass [1]): 5
- Effect Flat sedge (flat sedge): 3
- Effects Annual bluegrass (annual bluegrass [2]): 5
- Effects Large crabgrass (Large crabgrass [3]): 2
- Effects Blackgrass (blackgrass): 4
- Effect Bulrush (bulrush): 3
- Effects Annual bluegrass (annual bluegrass [6]): 5
- Effects Soybean (soybean [5]): 1
- Effects Sugar beat (sugar beat): 5
- Effects Solgum (solgum): 1

SMILES: CCC(Oc1cccc(C(F)(F)F)c1)c1nc2cc(C#N)c(Cl)cc2o1 (stereo not shown) [Compound 529]
- Effects Green foxtail (green foxtail): 5
- Effects Large crabgrass (Large crabgrass [1]): 5
- Effects Barnyardgrass (barnyardgrass): 3
- Effects Morning glory (morning glory): 3
- Effect Flat sedge (flat sedge): 4
- Effects Annual bluegrass (annual bluegrass [2]): 5
- Effects Large crabgrass (Large crabgrass [3]): 4
- Effects Blackgrass (blackgrass): 5
- Effect Bulrush (bulrush): 5
- Effects Annual bluegrass (annual bluegrass [6]): 4
- Effects Soybean (soybean [5]): 1
- Effects Sugar beat (sugar beat): 5
- Effects Solgum (solgum): 1

SMILES: CCCC(Oc1cccc(C(F)(F)F)c1)c1nc2cc(C#N)c(Cl)cc2o1 (stereo not shown) [Compound 532]
- Effects Green foxtail (green foxtail): 5
- Effects Large crabgrass (Large crabgrass [1]): 5
- Effects Barnyardgrass (barnyardgrass): 2
- Effects Morning glory (morning glory): 3
- Effect Flat sedge (flat sedge): 2
- Effects Annual bluegrass (annual bluegrass [2]): 5
- Effects Large crabgrass (Large crabgrass [3]): 4
- Effects Blackgrass (blackgrass): 5
- Effect Bulrush (bulrush): 5
- Effects Annual bluegrass (annual bluegrass [6]): 4
- Effects Soybean (soybean [5]): 1
- Effects Sugar beat (sugar beat): 5
- Effects Solgum (solgum): 1

SMILES: CCCC(Oc1ccc(F)c(C(F)(F)F)c1)c1nc2cc(C#N)c(Cl)cc2o1 (stereo not shown) [Compound 533]
- Effects Green foxtail (green foxtail): 4
- Effects Large crabgrass (Large crabgrass [1]): 5
- Effects Barnyardgrass (barnyardgrass): 2
- Effects Morning glory (morning glory): 5
- Effect Flat sedge (flat sedge): 2
- Effects Annual bluegrass (annual bluegrass [2]): 4
- Effects Large crabgrass (Large crabgrass [3]): 3
- Effects Blackgrass (blackgrass): 4
- Effects Annual bluegrass (annual bluegrass [6]): 4
- Effects Soybean (soybean [5]): 0
- Effects Sugar beat (sugar beat): 5
- Effects Solgum (solgum): 0
